Assays:
Type in all cases: in vivo
[1] = test system: barnyardgrass (Echinochloa crus-galli); test: Test A pre-/postemergence plant response
In short: (§1)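 Seeds planted in loam soil/sand blend; test chemicals in non-phytotoxic solvent mixture with surfactant applied as directed soil spray preemergence and, concurrently, postemergence to plants 2–10 cm tall at one- to two-leaf stage. Greenhouse ~10 days; visual injury vs untreated controls, 0 (no effect) to 100 (complete control).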

[2] = test system: corn (Zea mays); test: Test A pre-/postemergence plant response
In short: as §1

[3] = test system: giant foxtail (Setaria faberii); test: Test A pre-/postemergence plant response
In short: as §1

[4] = test system: large crabgrass (Digitaria sanguinalis); test: Test A pre-/postemergence plant response
In short: as §1

[5] = test system: morningglory (Ipomoea spp.); test: Test A pre-/postemergence plant response
In short: as §1

[6] = test system: pigweed (Amaranthus retroflexus); test: Test A pre-/postemergence plant response
In short: as §1

[7] = test system: velvetleaf (Abutilon theophrasti); test: Test A pre-/postemergence plant response
In short: as §1

[8] = test system: wheat (Triticum aestivum); test: Test A pre-/postemergence plant response
In short: as §1

[9] = test system: cocklebur (Xanthium strumarium); test: Test B pre-/postemergence plant response
From the text: (§2) Seeds of plant species selected from blackgrass (Alopecurus myosuroides), downy bromegrass (Bromus tectorum), green foxtail (Setaria viridis), Italian ryegrass (Lolium multiflorum), wheat (Triticum aestivum), wild oat (Avena fatua), deadnettle (henbit deadnettle, Lamium amplexicaule), galium (catchweed bedstraw, Galium aparine), bermudagrass (Cynodon dactylon), Surinam grass (Brachiaria decumbens), cocklebur (Xanthium strumarium), corn (Zea mays), large crabgrass (Digitaria sanguinalis), woolly cupgrass (Eriochloa villosa), giant foxtail (Setaria faberii), goosegrass (Eleusine indica), johnsongrass (Sorghum halepense), kochia (Kochia scoparia), lambsquarters (Chenopodium album), morningglory (Ipomoea coccinea), nightshade (eastern black nightshade, Solanum ptycanthum), yellow nutsedge (Cyperus esculentus), pigweed (Amaranthus retroflexus), ragweed (common ragweed, Ambrosia elatior), Russian thistle (Salsola kali), soybean (Glycine max), sunflower (common oilseed sunflower, Helianthus annuus) and velvetleaf (Abutilon theophrasti) were planted into a blend of loam soil and sand and treated preemergence with test compounds formulated in a non-phytotoxic solvent mixture which included a surfactant.
(§3) At the same time, plants selected from these crop and weed species and also winter barley (Hordeum vulgare), canarygrass (Phalaris minor), chickweed (Stellaria media) and windgrass (Apera spica-venti) were planted in pots containing Redi-Earth® planting medium (Scotts Company, 14111 Scottslawn Road, Marysville, Ohio 43041) comprising spaghnum peat moss, vermiculite, wetting agent and starter nutrients and treated with postemergence applications of some of the test chemicals formulated in the same manner. Plants ranged in height from 2 to 18 cm (1- to 4-leaf stage) for postemergence treatments.
(§4) Treated plants and controls were maintained in a greenhouse for 13 to 15 days, after which time all treated plants were visually evaluated and compared to controls. Plant response ratings, summarized in Table B, are based on a scale of 0 to 100 where 0 is no effect and 100 is complete control. A dash (-) response means no test result.

[10] = test system: giant foxtail (Setaria faberii); test: Test B pre-/postemergence plant response
From the text: as §2, §3, §4

[11] = test system: green foxtail (Setaria viridis); test: Test B pre-/postemergence plant response
From the text: as §2, §3, §4

[12] = Postemergence, 125 g ai/ha, visual injury, 0 to 100 scale (0 no effect, 100 complete control), approx. ten days
[13] = Postemergence, 500 g ai/ha, 0 to 100 scale, 0 = no effect, 100 = complete control, approx. ten days
[14] = Preemergence, 125 g ai/ha, 0 to 100 scale, 0 = no effect, 100 = complete control
[15] = Preemergence, 500 g ai/ha, visual injury, 0 to 100 scale (0 no effect, 100 complete control), approx. ten days
[16] = 31 g ai/ha, postemergence, scale 0 to 100, 0 is no effect, 100 is complete control
[17] = 250 g ai/ha, Preemergence, 0 to 100 scale
[18] = Postemergence, 62 g ai/ha, scale 0 (no effect) to 100 (complete control), 13 to 15 days
[19] = Postemergence, 125 g ai/ha, visual rating after 13 to 15 days, scale 0 (no effect) to 100 (complete control)
[20] = Postemergence, 250 g ai/ha, scale 0 to 100 (0 no effect, 100 complete control)
[21] = Preemergence, 31 g ai/ha, scale 0 to 100 (0 no effect, 100 complete control)
[22] = Preemergence, 62 g ai/ha, scale 0 to 100, 0 no effect, 100 complete control
[23] = Preemergence, 125 g ai/ha, scale 0 to 100, 0 no effect, 100 complete control
[24] = Postemergence, 31 g ai/ha, scale 0 to 100 (0 no effect, 100 complete control)
[25] = Postemergence, 250 g ai/ha, scale 0 to 100
[26] = Preemergence, 125 g ai/ha, 0 to 100 scale

For CCCCc1ncc(C(=O)C2=C(O)CCCC2=O)c(=O)n1-c1ccccc1C [Compound 62], the “Barnyardgrass plant response rating” value [1, 12] was 80, the “Plant response rating, Barnyardgrass” value [1, 13] was 90 and the “Plant response rating, Barnyardgrass” value [1, 14] was 10. For the same compound, the “Plant response rating, Barnyardgrass” value [1, 15] was 90, the “Corn plant response rating” value [2, 12] was 30 and the “Plant response rating, Corn” value [2, 13] was 70. For the same compound, the “Plant response rating, Corn” value [2, 14] was 0, the “Plant response rating, Corn” value [2, 15] was 20 and the “Foxtail, Giant plant response rating” value [3, 12] was 70. The “Plant response rating, Foxtail, Giant” value [3, 13] was 90, the “Plant response rating, Foxtail, Giant” value [3, 14] was 60 and the “Plant response rating, Foxtail, Giant” value [3, 15] was 70. The “Crabgrass, Large plant response rating” value [4, 12] was 70, the “Plant response rating, Crabgrass, Large” value [4, 13] was 90 and the “Plant response rating, Crabgrass, Large” value [4, 14] was 60. For the same compound, the “Plant response rating, Crabgrass, Large” value [4, 15] was 90, the “Morningglory plant response rating” value [5, 12] was 100 and the “Plant response rating, Morningglory” value [5, 13] was 100. For the same compound, the “Plant response rating, Morningglory” value [5, 14] was 90, the “Plant response rating, Morningglory” value [5, 15] was 100 and the “Pigweed plant response rating” value [6, 12] was 90. For the same compound, the “Plant response rating, Pigweed” value [6, 13] was 100, the “Plant response rating, Pigweed” value [6, 14] was 80 and the “Plant response rating, Pigweed” value [6, 15] was 100. The “Velvetleaf plant response rating” value [7, 12] was 100, the “Plant response rating, Velvetleaf” value [7, 13] was 100 and the “Plant response rating, Velvetleaf” value [7, 14] was 70. The “Plant response rating, Velvetleaf” value [7, 15] was 90, the “Wheat plant response rating” value [8, 12] was 0 and the “Plant response rating, Wheat” value [8, 13] was 20. The “Plant response rating, Wheat” value [8, 14] was 0, the “Plant response rating, Wheat” value [8, 15] was 10 and the “Plant response rating, Cocklebur” value [9, 16] was 25. For the same compound, the “Plant response rating, Cocklebur” value [9, 17] was 10, the “Plant response rating, Cocklebur” value [9, 18] was 55 and the “Plant response rating, Cocklebur” value [9, 19] was 55. For the same compound, the “Plant response rating, Cocklebur” value [9, 20] was 75, the “Plant response rating, Cocklebur” value [9, 21] was 0 and the “Plant response rating, Cocklebur” value [9, 22] was 0. The “Plant response rating, Cocklebur” value [9, 23] was 0, the “Plant response rating, Foxtail, Giant” value [10, 16] was 55 and the “Plant response rating, Foxtail, Giant” value [10, 17] was 20. For the same compound, the “Plant response rating, Foxtail, Giant” value [10, 18] was 65, the “Plant response rating, Foxtail, Giant” value [10, 19] was 75 and the “Plant response rating, Foxtail, Giant” value [10, 20] was 80. For the same compound, the “Plant response rating, Foxtail, Giant” value [10, 21] was 0, the “Plant response rating, Foxtail, Giant” value [10, 22] was 0 and the “Plant response rating, Foxtail, Giant” value [10, 23] was 20. The “Plant response rating, Foxtail, Green” value [11, 16] was 40, the “Plant response rating, Foxtail, Green” value [11, 17] was 10 and the “Plant response rating, Foxtail, Green” value [11, 18] was 70. The “Plant response rating, Foxtail, Green” value [11, 19] was 80, the “Plant response rating, Foxtail, Green” value [11, 20] was 85 and the “Plant response rating, Foxtail, Green” value [11, 21] was 0. For the same compound, the “Plant response rating, Foxtail, Green” value [11, 22] was 0 and the “Plant response rating, Foxtail, Green” value [11, 23] was 10.

In the case of “5-[(2-hydroxy-6-oxo-1-cyclohexen-1-yl)carbonyl]-3-(2-methoxyethyl)-2-(3-thienyl)-4(3H)-pyrimidinone [Compound 97]”, the “Barnyardgrass plant response rating” value [1, 12] was 90, the “Plant response rating, Barnyardgrass” value [1, 13] was 90 and the “Plant response rating, Barnyardgrass” value [1, 14] was 30. For the same compound, the “Plant response rating, Barnyardgrass” value [1, 15] was 90, the “Corn plant response rating” value [2, 12] was 30 and the “Plant response rating, Corn” value [2, 13] was 90. The “Plant response rating, Corn” value [2, 14] was 0, the “Plant response rating, Corn” value [2, 15] was 0 and the “Foxtail, Giant plant response rating” value [3, 12] was 90. For the same compound, the “Plant response rating, Foxtail, Giant” value [3, 13] was 100, the “Plant response rating, Foxtail, Giant” value [3, 14] was 70 and the “Plant response rating, Foxtail, Giant” value [3, 15] was 100. For the same compound, the “Crabgrass, Large plant response rating” value [4, 12] was 90, the “Plant response rating, Crabgrass, Large” value [4, 13] was 100 and the “Plant response rating, Crabgrass, Large” value [4, 14] was 90. For the same compound, the “Plant response rating, Crabgrass, Large” value [4, 15] was 100, the “Morningglory plant response rating” value [5, 12] was 100 and the “Plant response rating, Morningglory” value [5, 13] was 100. For the same compound, the “Plant response rating, Morningglory” value [5, 14] was 10, the “Plant response rating, Morningglory” value [5, 15] was 90 and the “Pigweed plant response rating” value [6, 12] was 100. The “Plant response rating, Pigweed” value [6, 13] was 100, the “Plant response rating, Pigweed” value [6, 14] was 100 and the “Plant response rating, Pigweed” value [6, 15] was 100. The “Velvetleaf plant response rating” value [7, 12] was 100, the “Plant response rating, Velvetleaf” value [7, 13] was 100 and the “Plant response rating, Velvetleaf” value [7, 14] was 90. For the same compound, the “Plant response rating, Velvetleaf” value [7, 15] was 100, the “Wheat plant response rating” value [8, 12] was 40 and the “Plant response rating, Wheat” value [8, 13] was 60. The “Plant response rating, Wheat” value [8, 14] was 0, the “Plant response rating, Wheat” value [8, 15] was 50 and the “Plant response rating, Cocklebur” value [9, 17] was 98. For the same compound, the “Plant response rating, Cocklebur” value [9, 24] was 70, the “Plant response rating, Cocklebur” value [9, 18] was 90 and the “Plant response rating, Cocklebur” value [9, 19] was 95. For the same compound, the “Cocklebur plant response rating” value [9, 25] was 98, the “Plant response rating, Cocklebur” value [9, 21] was 0 and the “Plant response rating, Cocklebur” value [9, 22] was 15. For the same compound, the “Cocklebur plant response rating” value [9, 26] was 65, the “Plant response rating, Foxtail, Giant” value [10, 17] was 45 and the “Plant response rating, Foxtail, Giant” value [10, 24] was 70. The “Plant response rating, Foxtail, Giant” value [10, 18] was 75, the “Plant response rating, Foxtail, Giant” value [10, 19] was 80 and the “Foxtail, Giant plant response rating” value [10, 25] was 95. The “Plant response rating, Foxtail, Giant” value [10, 21] was 0, the “Plant response rating, Foxtail, Giant” value [10, 22] was 0 and the “Foxtail, Giant plant response rating” value [10, 26] was 0. The “Plant response rating, Foxtail, Green” value [11, 17] was 30, the “Plant response rating, Foxtail, Green” value [11, 24] was 10 and the “Plant response rating, Foxtail, Green” value [11, 18] was 25. The “Plant response rating, Foxtail, Green” value [11, 19] was 70, the “Foxtail, Green plant response rating” value [11, 25] was 70 and the “Plant response rating, Foxtail, Green” value [11, 21] was 0. The “Plant response rating, Foxtail, Green” value [11, 22] was 0 and the “Foxtail, Green plant response rating” value [11, 26] was 0.

Source: patent US8952024B2, “Herbicidal pyrimidone derivatives” (E I du Pont de Nemours and Company, priority 2009, dated 2015)
